Results taken from paper doi:10.1101/2020.09.17.301234v1, “Molecular and functional characterization of buffalo nasal epithelial odorant binding proteins and their structural insights by in-silico and biochemical approach” (biorxiv, 2020).

Tests used:
Type in all cases: binding, Bubalus bubalis
[1] = target: T1, OBP1a (bnOBP isoform 1a; also printed 1OBPa); test: competitive 1-NPN displacement fluorescence; settings: 2 µM protein, 2 µM 1-NPN, 50 mM Tris-HCl, 300 mM NaCl, pH 8.0; competitive with 1-NPN
T1 construct: gene OBP

[2] = target: T1, OBP1a (bnOBP isoform 1a; also printed 1OBPa); test: fluorescence titration; settings: 50 mM Tris-HCl, 300 mM NaCl, pH 8.0; 2 µM protein; fluorescent probe; read-out: dissociation constant
[3] = target: T1, OBP1a (bnOBP isoform 1a; also printed 1OBPa); test: competitive 1-NPN displacement fluorescence; settings: 2 µM protein, 2 µM 1-NPN, 50 mM Tris-HCl, 300 mM NaCl, pH 8.0; competitive with 1-NPN; remark: listed apart in the source
Source text: competitive 1-NPN displacement fluorescence on OBP1a (bnOBP isoform 1a; also printed 1OBPa)

Ki [1] [µM] | Ki [3] [µM] | SMILES | Kd [2] [nM]
4.2 |  | CCCCCCCC/C=C\CCCCCCCC(=O)O [oleic acid] | 
 |  | c1ccc(Nc2cccc3ccccc23)cc1 [N-phenyl-1-naphthylamine] | 700
3.5 | 266 | Cc1ccc(O)cc1 [p-cresol] | 
